Source: paper PMC5400251, “Effect of quinoline based 1,2,3-triazole and its structural analogues on growth and virulence attributes of Candida albicans” (PLoS ONE, 2017)

Columns and labels:
proteinase secretion = experiment: Proteinase assay (BSA agar, Pz value); type: cell-based, C. albicans D15.9 (FLC-resistant); conditions: for Decrease of proteinase secretion: at MIC, 1 h exposure
Protocol: Following incubation, 1.5 mL of the yeast culture was taken into micro centrifuge tubes and centrifuged at 3000 rpm, for 5 min. The pellet obtained was washed by phosphate buffer saline (PBS) twice to remove the residual medium. […] Volumes of 1μL were placed at equidistant points on proteinase agar medium (0.1% yeast nitrogen base w/o amino acids; 0.145% ammonium sulfate; 2% glucose with 0.2% (w/v) BSA fraction V mixed into agar at ∼40°C) and incubated at 37°C for 3 days. The experiment was performed in duplicate. Secreted proteinase enzyme will degrade BSA and form zone of clearance around the yeast colonies. An index (Pz value) was used to represent the extent of proteinase activity by different strains of C. albicans. A Pz value of 1.0 depicts no enzyme activity. It was calculated as follows: Pzvalue=diameterofcolony/diameterofcolony+diameterofzoneofdegradation

phospholipase secretion = experiment: Phospholipase assay (egg yolk agar, Pz value); type: cell-based, C. albicans ATCC 90028
Protocol: Phospholipase activity was performed using the method of Price et al. (1982) with minor modifications. The cells were incubated at 37°C for 18 h and then centrifuged at 3000 rpm for 5 min. The pellet obtained was washed with PBS twice to remove the residual culture medium. […] Volumes of 1 μL were placed at equidistant points on phospholipase agar media plates (1% peptone; 3% glucose; 5.73% NaCl; 0.055% CaCl2 with 10% (v/v) egg yolk emulsion) and incubated at 37°C for 4 days. The secretion of phospholipases was determined by the formation of opaque zones due to precipitation around the yeast colonies. The assay was conducted in duplicate. Pz values were calculated as follows: Pzvalue=diameterofcolony/diameterofcolony+diameterofzoneofprecipitaion

[1] = tested on: C. albicans ATCC 90028, C. albicans D27 (FLC-susceptible) and C. albicans D15.9 (FLC-resistant); experiment: Time kill curve study, three strains; type: cell-based; conditions: for Fungicidal or fungistatic nature: time kill curves, at 2MIC
Protocol: Time-kill curves were used for testing the fungicidal or fungistatic nature of the lead inhibitors 3a and 3b. The experimental procedure was performed according to the method reported by Wang et al.. C. albicans ATCC 90028, C. albicans D27 (FLC-susceptible) and C. albicans D15.9 (FLC-resistant) strains were used as test organisms. Fluconazole was used as a positive control. Freshly prepared sterile YEPD medium was inoculated by fresh culture (approx. 2×10^3 cells) of test organisms in different conical flasks. The cells were exposed to the test compounds at 2MIC, MIC and MIC/2 values, separately. All the conical flasks having different sets of test compounds and concentrations were incubated at 37°C and 160 rpm. At predetermined time points (0, 4, 12, 24, and 48 h after incubation with agitation at 37°C), a 100-μL aliquot was removed from every solution and appropriately diluted in sterile water. A 100-μl aliquot from each dilution was spread over the YEPD agar plate. Colony counts were determined after incubation at 37°C for 24 h. All the time-kill curve experiments were conducted in duplicate and mean colony count data (log10 CFU/mL) were plotted as a function of time for each strain.

C. albicans ATCC 90028 = experiment: Transmission electron microscopic analysis of morphology; type: cell-based; conditions: MIC, 1 h exposure
Protocol: The morphology of C. albicans ATCC 90028 was analyzed using TEM following the standard protocol. […] Cells were then washed thrice with phosphate buffer solution to remove the residual medium and fixed overnight in 2.5% glutaraldehyde in phosphate/magnesium buffer (40 mM K2HPO4/KH2PO4, pH 6.5–0.5 mM MgCl2). Cells were washed twice for 15 min in 0.1 M sodium phosphate buffer (pH 6.0) and post-fixed for 2 h in 2% osmium tetroxide. Cells were again washed twice for 15 min in distilled water and then en bloc stained with 1% uranyl acetate (aqueous) for 30 min. After two further washes, cells were dehydrated in 95% and 100% ethanol. Cells were then exposed to propylene oxide for 2×10 min and infiltrated for 1 h in 1:1 propylene/epoxy embedding material (Epon) mixture and then overnight in fresh Epon. After polymerization for 48 h at 60°C, ultrathin sections were cut using a microtome (LeicaEM UC6) and transferred to a copper grid. Samples were stained with uranyl acetate (saturated solution of uranyl acetate in 50% alcohol) followed by lead citrate. Samples were washed three times in Milli-Q (MQ) water and dried by touching Whatman filter paper. Sections were examined with a FEI Tecnai G^2 TF20 transmission electron microscope at 200 KV.

[2] = tested on: C. albicans D15.9 (FLC-resistant); experiment: Growth assay (growth curve); type: cell-based; conditions: sub-MIC (MIC/2)
Protocol: (§1) The C. albicans cells were freshly revived by subculture on the SD agar plate. A loopful of inoculum was introduced into the SD broth and cells were grown for 16 h at 37°C before use. Approximately 2×10^3 cells/mL were then inoculated into the freshly prepared 50 mL sterile SD medium. […] At predetermined time periods (0, 2, 4, 6, 8, 10, 12, 14, 16, 18, 20 22, and 24 after incubation with agitation at 37°C), 1 mL aliquot of each sample was removed from the conical flask and growth was measured tubidometrically at 600 nm using Thermo Multiskan spectrophotometer. Optical density was recorded for each concentration against time (h).

[3] = tested on: C. albicans ATCC 90028 (Standard); experiment: Growth assay (growth curve); type: cell-based; conditions: sub-MIC (MIC/2)
Protocol: as §1

[4] = tested on: C. albicans D27 (FLC-susceptible); experiment: Growth assay (growth curve); type: cell-based; conditions: sub-MIC (MIC/2)
Protocol: as §1

c1ccc(Cn2cc(COc3cccc4cccnc34)nn2)cc1 [Compound 3a]
Decrease of proteinase secretion (fold) (proteinase secretion; Fig 4 legend): two fold | Decrease of proteinase secretion (proteinase secretion): 45% | Decrease of phospholipase secretion (phospholipase secretion; at MIC, 1 h exposure): 43% | Decrease of phospholipase secretion (phospholipase secretion; at MIC/4, 1 h exposure): 40% | Change in CFU/mL ([1]; 2MIC, after 48 h, all three test strains): significant decrease in CFU/mL | Fungicidal or fungistatic nature [1]: fungicidal | Cell morphology by TEM (C. albicans ATCC 90028): several deformations

Clc1ccc(OCc2cn(Cc3ccccc3)nn2)c2ncccc12 [Compound 3b, 8-((1-Benzyl-1H-1,2,3-triazol-4-yl)methoxy)-5-chloroquinoline]
Decrease of proteinase secretion (proteinase secretion): 23.5% | Time after which growth was observed [2]: 14 h | Time after which growth was observed [3]: 20 h | Time after which growth was observed [4]: 18 h | Phospholipase activity after treatment (phospholipase secretion; Fig 4 legend): No phospholipase activity | Decrease of phospholipase secretion (phospholipase secretion; at MIC, 1 h exposure): 68% | Decrease of phospholipase secretion (phospholipase secretion; at MIC/4, 1 h exposure): 32% | Change in CFU/mL with time interval ([1]; dose dependent): only slight increase in CFU/mL | Fungicidal or fungistatic nature [1]: fungistatic | melting point: 148 to 149 °C | Cell morphology by TEM (C. albicans ATCC 90028): several deformations
